Measurements taken from patent US4678775A, “Method of controlling pests” (priority 1984, dated 1987).

Columns and labels:
[1] = system: tobacco hornworms (Manducca sexta); assay: In vivo leaf test (antifeeding) on tomato leaves with tobacco hornworm larvae; conditions: for effect of addition of IBMX on antifeeding / pesticidal activity: with PDE inhibitor IBMX
[2] = Cyclic AMP analogue remaining after incubation with nerve cord homogenate; assay type: in vitro ADME, tobacco hornworm; conditions: in vitro 4 hours; IBMX 0.1 mM; FIG. 7
Protocol: It has been previously shown, above, that PDE inhibition can increase the concentration of cyclic AMP in insect tissue. […] In order to do this, a fixed amount of butyl-benzylthio cyclic AMP was incubated in vitro for 4 hours in the presence of a tissue homogenated from tobacco hornworm nerve cord. In some tubes, IBMX (0.1 mM) was added to inhibit PDE. After the incubation, the amount of butyl-benzylthio cyclic AMP remaining was measured by protein binding assay (Brown et al., supra), using a standard curve based upon butyl-benzylthio cyclic AMP.

[3] = system: Beta1 and Beta2-adrenergic-stimulated adenylate cyclase in rat liver; assay: Adenylate cyclase stimulation in rat liver; assay type: biochemical
[4] = target: T1, Beta1 and Beta2-adrenergic-stimulated adenylate cyclase in rat liver (Rattus norvegicus, UniProt P10608); assay: Adenylate cyclase stimulation in rat liver; assay type: biochemical
T1 construct: adenylate cyclase in rat heart and liver; from tissue; host or cells: rat liver

[5] = target: T2, dopamine-sensitive adenylate cyclase in rat caudate nucleus (Rattus norvegicus, UniProt P18901); assay: Adenylate cyclase stimulation in rat caudate nucleus; assay type: biochemical
T2 construct: in the rat caudate nucleus; from tissue; host or cells: rat caudate nucleus

[6] = system: octopamine-sensitive adenylate cyclase; assay: Activation of octopamine-sensitive adenylate cyclase, firefly light organ broken cell preparation; assay type: biochemical, Photinus pyralis
[7] = target: T3, Beta1 and Beta2-adrenergic-stimulated adenylate cyclase in rat heart (Rattus norvegicus, UniProt P18090); assay: Adenylate cyclase stimulation in rat heart; assay type: biochemical
T3 construct: adenylate cyclase in rat heart and liver; from tissue; host or cells: rat heart

[8] = system: Beta1 and Beta2-adrenergic-stimulated adenylate cyclase in rat heart; assay: Adenylate cyclase stimulation in rat heart; assay type: biochemical
[9] = system: isolated tails of Photinus males; assay: Stimulation of light production after injection into transected, isolated firefly tails; assay type: in vivo; conditions: for EC50 for stimulated light emission: injected into isolated tails
[10] = system: octopamine-sensitive adenylate cyclase; conditions: Nathanson et al. 1981; cited from earlier work
[11] = system: adenylate cyclase in nerve cord of tobacco hornworm; assay: Adenylate cyclase activation in broken cell preparations of tobacco hornworm nerve cord; assay type: biochemical, tobacco hornworm (Manducca sexta)
Protocol: Otherwise, the procedure is identical to that described above.
The tissue is homogenized (usually 15 mg/ml) as above in 6 mM Tris maleate, pH 7.4. […] This is done to cancel out the effects of dopamine and serotonin receptors which are usually present in nerve cord.
As detailed previously, the adenylate cyclase assay, either in the firefly or in other insect pest, is also used to identify a direct stimulator of adenylate cyclase.

[12] = system: adenylate cyclase in the firefly lantern; assay: Direct activation of adenylate cyclase in firefly lantern (forskolin); assay type: biochemical, Photinus pyralis; conditions: FIG. 2, firefly lantern
Source text: The second type of pest controlling compounds (2) useable in the present compositions are direct stimulators of the pest enzyme adenylate cyclase. These compounds bypass the receptor, and interact with one or another of the associated catalytic or regulatory subunits of adenylate cyclase, thereby stimulating the formation of cyclic AMP. Suitable compounds can be determined from assay of pest adenylate cyclase as described above.
Specimens of Photinus pyralis were collected in summer, frozen on dry ice, and stored at -90°. […] For each experiment, a number of insects were thawed and maintained at 4° C. […]
Adenylate cyclase activation by test compounds was measured in test tubes containing (in 0.3 ml) 80 mM Tris-maleate, pH 7.4; 10 mM theophylline; 8 mM MgCl2; 0.1 mM GTP; 0.5 mM ethylene glycol bis(beta-aminoethyl ether)-N,N,N',N'-tetraacetic acid; 2 mM ATP; 0.06 ml of P2 fractions; and the various compounds to be tested. Prior experiments had determined that, under these conditions, octopamine-sensitive adenylate cyclase activity is optimized. […] Cyclic AMP in the supernatant was measured by protein-binding assay, according to the method of Brown et al., Adv. […] Protein concentration was determined by the method of Lowry et al., Journal of Biological Chemistry 193: 265-275 (1951). […]

[13] = FIG. 3, hornworm larvae nerve cord

T2 sequence (P18901 whole entry): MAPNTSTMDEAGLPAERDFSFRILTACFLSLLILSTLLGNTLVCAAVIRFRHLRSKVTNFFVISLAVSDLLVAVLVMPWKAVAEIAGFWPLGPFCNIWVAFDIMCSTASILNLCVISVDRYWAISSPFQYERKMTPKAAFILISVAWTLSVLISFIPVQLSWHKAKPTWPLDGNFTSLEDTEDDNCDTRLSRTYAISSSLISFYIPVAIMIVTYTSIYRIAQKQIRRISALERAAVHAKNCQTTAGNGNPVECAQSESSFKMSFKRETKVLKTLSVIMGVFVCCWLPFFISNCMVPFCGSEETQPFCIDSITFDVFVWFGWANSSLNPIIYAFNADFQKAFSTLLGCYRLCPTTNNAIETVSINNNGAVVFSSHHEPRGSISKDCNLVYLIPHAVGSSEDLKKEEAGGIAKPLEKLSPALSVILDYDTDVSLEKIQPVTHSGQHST
T1 sequence (P10608 whole entry): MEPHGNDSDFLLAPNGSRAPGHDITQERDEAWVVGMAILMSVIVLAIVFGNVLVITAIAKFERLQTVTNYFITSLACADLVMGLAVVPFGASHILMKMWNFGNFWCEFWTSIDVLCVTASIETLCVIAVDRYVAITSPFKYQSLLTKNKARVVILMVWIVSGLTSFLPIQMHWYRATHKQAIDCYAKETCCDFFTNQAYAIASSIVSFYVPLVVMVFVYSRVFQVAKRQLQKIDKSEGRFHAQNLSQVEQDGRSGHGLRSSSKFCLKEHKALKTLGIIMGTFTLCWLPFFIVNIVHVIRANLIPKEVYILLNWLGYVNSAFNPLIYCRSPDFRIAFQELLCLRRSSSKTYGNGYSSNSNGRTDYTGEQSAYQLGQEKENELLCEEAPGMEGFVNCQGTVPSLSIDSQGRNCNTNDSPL
T3 sequence (P18090 whole entry): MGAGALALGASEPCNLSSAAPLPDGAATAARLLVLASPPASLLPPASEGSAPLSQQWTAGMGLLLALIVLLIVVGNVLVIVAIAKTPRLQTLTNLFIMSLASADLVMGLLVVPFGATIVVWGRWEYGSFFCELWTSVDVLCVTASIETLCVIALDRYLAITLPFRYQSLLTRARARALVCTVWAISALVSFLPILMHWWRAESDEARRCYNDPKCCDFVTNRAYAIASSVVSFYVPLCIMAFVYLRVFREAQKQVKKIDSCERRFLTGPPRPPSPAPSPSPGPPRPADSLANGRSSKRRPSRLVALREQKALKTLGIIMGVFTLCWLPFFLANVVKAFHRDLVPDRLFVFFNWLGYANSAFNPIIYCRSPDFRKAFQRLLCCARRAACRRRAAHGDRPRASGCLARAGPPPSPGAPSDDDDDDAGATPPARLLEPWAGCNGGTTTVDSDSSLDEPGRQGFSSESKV

Compound: CCCCNc1ncnc2c1nc(SCc1ccccc1)n2[C@@H]1O[C@@H]2COP(=O)(O)O[C@H]2[C@H]1O [n-butylaminobenzylthio cyclic AMP, 6-n-butylamino-8-benzylthio-cyclic AMP, reference compound]
- antifeeding activity ([1]; concentration of 1%, absence of IBMX): showed antifeeding activity
- effect of addition of IBMX on antifeeding / pesticidal activity [1]: increased by addition of IBMX
- amount of cyclic AMP analogue present after 4 hours, with IBMX versus without [2]: more than doubled

Compound: CCc1cccc(CC)c1N=C1NCCN1 [NC 5, 2-(2,6-diethylphenylimino)imidazolidine]
- inhibition of basal adenylate cyclase activity [3]: In none of the three mammalian tissues did NC5 cause any inhibition
- stimulation of adenylate cyclase [4]: neither octopamine nor NC5 were active
- inhibition of basal adenylate cyclase activity [5]: In none of the three mammalian tissues did NC5 cause any inhibition
- stimulation of adenylate cyclase [5]: neither octopamine nor NC5 caused any significant enzyme stimulation
- Ka (half-maximal activation) [6]: about 1 μM
- Ka fold lower than that due to octopamine [6]: 20 fold
- maximal stimulation relative to octopamine [6]: equal to that caused by octopamine
- Ka ratio to octopamine ([6]; Table 2, clonidines): 19.0
- Vmax (% OCT) ([6]; Table 2, clonidines, N.A. = no activity): 97 % OCT
- activity as an octopamine antagonist ([6]; combinations of octopamine and NC5): no activity as an octopamine antagonist
- lowest concentration with significant stimulation ([6]; unit not given): 3×10^-8
- stimulation of adenylate cyclase [7]: almost completely inactive
- inhibition of basal adenylate cyclase activity [8]: In none of the three mammalian tissues did NC5 cause any inhibition
- % Leaf Remaining ([1]; Table 5, agonist 3 × 10^-1 gm/100 ml, IBMX 0.1 g/100 ml): 70%
- effect of addition of IBMX on antifeeding / pesticidal activity [1]: substantial increases in the potency
- EC50 for stimulated light emission [9]: about 0.3 nmoles
- times as potent as octopamine ([9]; light emission EC50): more than 16 times

Compound: CNC=Nc1ccc(Cl)cc1C [DCDM, N-demethylchlordimeform]
- potency relative to octopamine as partial agonist of light organ octopamine-stimulated adenylate cyclase [10]: about six-fold more potent than octopamine

Compound: C=C[C@@]1(C)CC(=O)[C@]2(O)[C@@]3(C)[C@@H](O)CCC(C)(C)[C@@H]3[C@H](O)[C@H](OC(C)=O)[C@@]2(C)O1 [forskolin]
- Ka ratio [11, 13]: 0.20
- Vmax [11, 13]: about 100%
- Ka ratio [12]: 0.22
- Vmax [12]: 100%
- antifeeding activity ([1]; compound itself, in words): has antifeeding activity
- effect of addition of IBMX on antifeeding / pesticidal activity [1]: enhanced

Compound: NCC(O)c1ccc(O)cc1 (racemic) [octopamine, reference compound]
- activation of adenylate cyclase in nerve cord ([11]; FIG. 1): potent activators
- stimulation of adenylate cyclase [4]: neither octopamine nor NC5 were active
- stimulation of adenylate cyclase [5]: neither octopamine nor NC5 caused any significant enzyme stimulation
- Ki for inhibition of feeding by the larvae ([1]; applied to leaves): 0.5 mg/leaf
- rank order antifeeding effectiveness ([1]; based on the EC50 of the octopamine agonist, alone or +IBMX): DDCDM+IBMX=NC7+IBMX>Octopamine+IBMX=DDCDM alone>NC7 alone>octopamine alone
- behaviour of larvae feeding on treated leaves ([1]; in vivo): tremors, hyperactivity, and leaf walk-off behavior
- pesticidal activity ([1]; no IBMX): little pesticidal activity
- effect of addition of IBMX on antifeeding / pesticidal activity [1]: considerably elevated both cyclic AMP content and pesticidal activity
- EC50 for stimulated light emission [9]: about 5 nmoles/tail
